Target: T1, human Cdc7/human ASK conjugated protein (Homo sapiens, UniProt O00311)
T1 construct: purchased CARNA BIOSCIENCES
Assay: Cdc7 protein kinase inhibitory action (Cdc7-ASK kinase activity, 32P-labeled MCM2)
Assay type: biochemical
Conditions: substrate mouse MCM2-4(his)-6-7(his) conjugated protein, 0.1 mM ATP, 30° C. for 45 minutes; read-out: Activity (uM) ELISA (IC50)
Procedure: Cdc7 protein kinase inhibitory action of the (di)azaindole derivatives shown in Table 4 was evaluated according to the following operations.
As a substrate for evaluating the enzymatic activity, mouse MCM2-4(his)-6-7 (his) conjugated protein was synthesized. First, the following genes were cloned into a pAcUW31 vector (Pharmingen).
Mouse MCM2 (Genbank/EMBL No. D86725);
N-His-mouse MCM4 (Genbank/EMBL No. D26089, a His6 tag was added to an N-terminal);
Mouse MCM6 (Genbank/EMBL No. D86726), and
N-His-mouse MCM7 (Genbank/EMBL No. D26091, a His6 tag was added to an N-terminal).
The Mouse MCM2 gene and the N-His-mouse MCM7 gene were inserted into the BamHI site and the EcoRI site of the pAcUW31 vector (Mom2-7 Vector), respectively. The mouse MCM6 gene and the N-His-mouse MCM4 gene were inserted into the BamHI site and the EcoRI site of the pAcUW31 vector (MGm-4-6 Vector), respectively. Then, in order to produce a recombinant mouse MCM2-7 (his) and mouse MCM4 (his)-6 Baculovirus, BaculoGold AoNPV Baculovirus DNA (BD/Pharmingen) and an Mcm2-7 Vector or an Mcm-4-6 Vector were cotransfected to SD insect cells. The obtained Mcm2-7 and Mom-4-6 virus were coinfected to Hi5 insect cells. Thereby, a mouse MCM2-4 (his)-6-7 (his) conjugated protein was obtained. Purified mouse MCM2-4 (his)-6-7 (his) conjugated protein (0.5 μg) was used as a substrate.
The substrate (mouse MCM2-4(his)-6-7(his) conjugated protein) (0.5 μg) and kinase enzyme (human Cdc7/human ASK conjugated protein, CARNA BIOSCIENCES) (0.1 μg) were mixed in a microtube. A kinase reaction buffer containing 0.1 μL of γ-^32P ATP (Perkin Elmer) was added as a tracer into the same microtube. The composition of the kinase buffer includes the followings.
40 mM HEPES-KOH buffer pH 7.6,
Furthermore, 0.5 μL of each of the test compounds ((di)azaindole derivatives 10 μM, 100 μM, and 1000 μM, respectively) was added and reacted at 30° C. for 45 minutes. After the reaction, the substrate was separated by SDS-PAGE method, and protein was stained by the silver staining method (2D-silver staining reagent H “Daiichi,” Daiichi Pure Chemicals Co., Ltd.).
The radioactivity of ^32P-labeled MCM2 protein was detected by autoradiography, and the radioactivity of the band of MCM2 protein was measured by a liquid scintillation counter (LSC-6100, ALOKA). As to the Cdc7-ASK kinase activity, the radioactivity at the time when the each of the test compounds was added was calculated in percent when the radioactivity at the time when DMSO (0.5 μL) was added instead of the test compound (0.5 μL) that had been added immediately before the reaction was made to be 100%. Based on the obtained results, IC 50 value of each test compound was calculated. IC50 with respect to Cdc7-ASK kinase of the main (di)azaindole derivatives shown in Table 5 was about 0.001 μM to 0.008 μM.

T1 sequence (O00311 whole entry): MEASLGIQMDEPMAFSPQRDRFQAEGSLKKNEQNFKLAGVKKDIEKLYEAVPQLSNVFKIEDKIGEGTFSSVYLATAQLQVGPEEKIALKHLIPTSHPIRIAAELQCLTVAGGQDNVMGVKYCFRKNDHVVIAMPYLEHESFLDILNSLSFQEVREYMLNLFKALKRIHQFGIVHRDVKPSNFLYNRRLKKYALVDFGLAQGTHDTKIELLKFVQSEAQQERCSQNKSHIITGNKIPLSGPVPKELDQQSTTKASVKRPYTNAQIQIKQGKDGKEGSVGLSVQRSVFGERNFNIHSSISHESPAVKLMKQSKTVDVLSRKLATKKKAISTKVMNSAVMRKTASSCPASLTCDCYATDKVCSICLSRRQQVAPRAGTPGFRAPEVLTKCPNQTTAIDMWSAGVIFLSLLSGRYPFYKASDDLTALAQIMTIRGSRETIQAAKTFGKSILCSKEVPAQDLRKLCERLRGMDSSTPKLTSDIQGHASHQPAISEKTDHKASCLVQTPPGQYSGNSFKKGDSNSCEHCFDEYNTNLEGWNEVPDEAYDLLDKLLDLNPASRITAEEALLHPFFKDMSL
T1 sequence (Q9UBU7 whole entry partner): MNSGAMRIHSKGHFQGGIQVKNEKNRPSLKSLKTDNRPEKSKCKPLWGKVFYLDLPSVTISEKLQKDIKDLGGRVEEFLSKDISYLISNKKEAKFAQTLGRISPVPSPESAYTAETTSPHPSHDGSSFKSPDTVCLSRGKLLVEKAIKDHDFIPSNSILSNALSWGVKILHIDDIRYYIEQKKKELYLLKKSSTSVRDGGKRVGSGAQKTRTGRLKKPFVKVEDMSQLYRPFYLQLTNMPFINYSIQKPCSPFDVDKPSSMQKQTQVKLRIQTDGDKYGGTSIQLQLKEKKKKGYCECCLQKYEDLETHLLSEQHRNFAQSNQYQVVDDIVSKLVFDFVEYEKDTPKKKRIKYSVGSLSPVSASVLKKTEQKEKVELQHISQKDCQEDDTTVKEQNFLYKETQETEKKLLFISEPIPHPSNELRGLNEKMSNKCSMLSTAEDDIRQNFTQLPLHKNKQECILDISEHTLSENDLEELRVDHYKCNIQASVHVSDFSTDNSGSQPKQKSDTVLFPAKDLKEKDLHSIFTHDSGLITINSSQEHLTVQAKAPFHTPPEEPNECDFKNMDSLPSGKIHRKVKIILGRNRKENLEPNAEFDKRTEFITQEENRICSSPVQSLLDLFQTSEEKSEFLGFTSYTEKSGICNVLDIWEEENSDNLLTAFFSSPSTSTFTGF

Compound | IC50 [µM]
Cc1cc(OC2CCN(C)C2)ccc1/N=C1/NC(=O)/C(=C/c2c[nH]c3ncncc23)S1 (centres unmarked) [Compound 15, (2Z,5Z)-2-{4-(1-methylpyrrolidin-3-yl)oxy-2-methylphenyl}azamethylene-5-(7H-pyrrolo[2,3-d]pyrimidin-5-yl)methylene-1,3-thiazolidin-4-one] | 0.008
CN(C)CCOc1ccc(/N=C2/NC(=O)/C(=C/c3c[nH]c4ncccc34)S2)c(C(F)(F)F)c1 [Compound 13, (2Z,5Z)-2-{4-(2-dimethylamino)ethoxy-2-trifluoromethylphenyl}azamethylene-5-(1H-pyrrolo[2,3-b]pyridin-3-yl)methylene-1,3-thiazolidin-4-one] | 0.003
Cc1cc(OCCN2CCN(C)CC2)ccc1/N=C1/NC(=O)/C(=C/c2c[nH]c3ncccc23)S1 [Compound 7, (2Z,5Z)-2-[4-{2-(4-methylpiperazin-1-yl)}ethoxy-2-methylphenyl]azamethylene-5-(1H-pyrrolo[2,3-b]pyridin-3-yl)methylene-1,3-thiazolidin-4-one] | 0.0021
CN(C)CCOc1ccc(/N=C2/NC(=O)/C(=C/c3c[nH]c4ncncc34)S2)c(Cl)c1 [Compound 17, (2Z,5Z)-2-{2-chloro-4-(2-dimethylamino)ethoxyphenyl}azamethylene-5-(7H-pyrrolo[2,3-d]pyrimidin-5-yl)methylene-1,3-thiazolidin-4-one] | 0.002
Cc1cc(OC2CCN(C)CC2)ccc1/N=C1/NC(=O)/C(=C/c2c[nH]c3ncncc23)S1 [Compound 16, (2Z,5Z)-2-{4-(1-methyl-piperidin-4-yl)oxy-2-methylphenyl}azamethylene-5-(7H-pyrrolo[2,3-d]pyrimidin-5-yl)methylene-1,3-thiazolidin-4-one] | 0.006
CN(C)CCOc1ccc(/N=C2/NC(=O)/C(=C/c3c[nH]c4ncccc34)S2)c(Cl)c1 [Compound 10, (2Z,5Z)-2-{2-chloro-4-(2-dimethylamino)ethoxyphenyl}azamethylene-5-(1H-pyrrolo[2,3-b]pyridin-3-yl)methylene-1,3-thiazolidin-4-one] | 0.002
O=C1N/C(=N/c2ccc(C(=O)O)cc2)S/C1=C\c1c[nH]c2ncccc12 [Compound 4, (2Z,5Z)-2-(4-carboxyphenyl)azamethylene-5-(1H-pyrrolo[2,3-b]pyridin-3-yl)methylene-1,3-thiazolidin-4-one] | 0.018
CN1CCC(Oc2ccc(/N=C3/NC(=O)/C(=C/c4c[nH]c5ncncc45)S3)c(Cl)c2)C1 (centres unmarked) [Compound 18, (2Z,5Z)2-{2-chloro-4-(1-methylpyrrolidin-3-yl)oxyphenyl}azamethylene-5-(7H-pyrrolo[2,3-d]pyrimidin-5-yl)methylene-1,3-thiazolidin-4-one] | 0.002
CN(C)CCOc1ccc(/N=C2/NC(=O)/C(=C/c3c[nH]c4ncncc34)S2)c(C(F)(F)F)c1 [Compound 19, (2Z,5Z)-2-{4-(2-dimethylamino)ethoxy-2-trifluoromethylphenyl}azamethylene-5-(7H-pyrrolo[2,3-d]pyrimidin-5-yl)methylene-1,3-thiazolidin-4-one] | 0.006
CN1CCC(Oc2ccc(/N=C3/NC(=O)/C(=C/c4c[nH]c5ncccc45)S3)c(C(F)(F)F)c2)CC1 [Compound 23, (2Z,5Z)-2-{4-(1-methyl-piperidin-4-yl)oxy-2-trifluoromethylphenyl}azamethylene-5-(1H-pyrrolo[2,3-b]pyridm-3-yl)methylene-1,3-thiazolidin-4-one] | 0.003
CN1CCC(Oc2ccc(/N=C3/NC(=O)/C(=C/c4c[nH]c5ncncc45)S3)c(Cl)c2)CC1 [Compound 21, (2Z,5Z)-2-{2-chloro-4-(1-methyl-piperidin-4-yl)oxyphenyl}azamethylene-5-(7H-pyrrolo[2,3-d]pyrimidin-5-yl)methylene-1,3-thiazolidin-4-one] | 0.003
Cc1cc(OCCN(C)C)ccc1/N=C1/NC(=O)/C(=C/c2c[nH]c3ncncc23)S1 [Compound 11, (2Z,5Z)-2-{4-(2-dimethylamino)ethoxy-2-methylphenyl}azamethylene-5-(7H-pyrrolo[2,3-d]pyrimidin-5-yl)methylene-1,3-thiazolidin-4-one] | 0.005
Cc1cc(OC2CCN(C)C2)ccc1/N=C1/NC(=O)/C(=C/c2c[nH]c3ncccc23)S1 (centres unmarked) [Compound 6, (2Z,5Z)-2-{4-(1-methylpyrrolidin-3-yl)oxy-2-methylphenyl}azamethylene-5-(1H-pyrrolo[2,3-b]pyridin-3-yl)methylene-1,3-thiazolidin-4-one] | 0.003
CN1CCC(Oc2ccc(/N=C3/NC(=O)/C(=C/c4c[nH]c5ncncc45)S3)c(C(F)(F)F)c2)C1 (centres unmarked) [Compound 20, (2Z,5Z)-2-{4-(1-methylpyrrolidin-3-yl)oxy-2-trifluoromethylphenyl}azamethylene-5-(7H-pyrrolo[2,3-d]pyrimidin-5-yl)methylene-1,3-thiazolidin-4-one] | 0.007

The remaining lines, values ahead:

IC50 [µM] | Compound
0.0012 | COc1ccc(/N=C2/NC(=O)/C(=C/c3c[nH]c4ncccc34)S2)c(C)c1 [Compound 1, (2Z,5Z)-2-(4-methoxy-2-methylphenyl)azamethylene-5-(1H-pyrrolo[2,3-b]pyridin-3-yl)methylene-1,3-thiazolidin-4-one]
0.0019 | Cc1cc(OCCN(C)C)ccc1/N=C1/NC(=O)/C(=C/c2c[nH]c3ncccc23)S1 [Compound 5, (2Z,5Z)-2-{4-(2-dimethylamino)ethoxy-2-methylphenyl}azamethylene-5-(1H-pyrrolo[2,3-b]pyridin-3-yl)methylene-1,3-thiazolidin-4-one]
0.001 | CN1CCC(Oc2ccc(/N=C3/NC(=O)/C(=C/c4c[nH]c5ncccc45)S3)c(Cl)c2)CC1 [Compound 22, (2Z,5Z)-2-{2-chloro-4-(1-methyl-piperidin-4-yl)oxyphenyl}azamethylene-5-(1H-pyrrolo[2,3-b]pyridin-3-yl)methylene-1,3-thiazolidin-4-one]
0.002 | CN1CCC(Oc2ccc(/N=C3/NC(=O)/C(=C/c4c[nH]c5ncccc45)S3)c(C(F)(F)F)c2)C1 (centres unmarked) [Compound 14, (2Z,5Z)-2-{4-(1-methylpyrrolidin-3-yl)oxy-2-trifluoromethylphenyl}azamethylene-5-(1H-pyrrolo[2,3-b]pyridin-3-yl)methylene-1,3-thiazolidin-4-one]
0.001 | CN1CCC(Oc2ccc(/N=C3/NC(=O)/C(=C/c4c[nH]c5ncccc45)S3)c(Cl)c2)C1 (centres unmarked) [Compound 12, (2Z,5Z)-2-{2-chloro-4-(1-methylpyrrolidin-3-yl)oxyphenyl}azamethylene-5-(1H-pyrrolo[2,3-b]pyridin-3-yl)methylene-1,3-thiazolidin-4-one]
0.0014 | Cc1cc(O)ccc1/N=C1/NC(=O)/C(=C/c2c[nH]c3ncccc23)S1 [Compound 3, (2Z,5Z)-2-(4-hydroxy-2-methylphenyl)azamethylene-5-(1H-pyrrolo[2,3-b]pyridin-3-yl)methylene-1,3-thiazolidin-4-one]
0.001 | Cc1ccc(/N=C2/NC(=O)/C(=C/c3c[nH]c4ncccc34)S2)c(C)c1 [Compound 2, (2Z,5Z)-2-(2,4-dimethylphenyl)azamethylene-5-(1H-pyrrolo[2,3-b]pyridin-3-yl)methylene-1,3-thiazolidin-4-one]

Target: T1, human Cdc7/human ASK conjugated protein
Assay: as above
Assay type: biochemical
Conditions: substrate mouse MCM2-4(his)-6-7(his) conjugated protein, 0.1 mM ATP, 30° C. for 45 minutes; read-out: Activity (uM) ELISA (IC50)
Remark: another data set of the same source

IC50 [µM] | Compound
0.0011 | (2Z,5Z)-2-{4-(1-methyl-piperidin-4-yl)oxy-2-methylphenyl}azamethylene-5-(1H-pyrrolo[2,3-b]pyridin-3-yl)methylene-1,3-thiazolidin-4-one [Compound 8]
0.0017 | Cc1cc(OCCN2CCOCC2)ccc1/N=C1/NC(=O)/C(=C/c2c[nH]c3ncccc23)S1 [Compound 9, (2Z,5Z)-2-{4-(2-morpholino)ethoxy-2-metlhylphenyl}azamethylene-5-(1H-pyrrolo[2,3-b]pyridin-3-yl)methylene-1,3-thiazolidin-4-one]
